≈ marks a conversion by molar mass, not a printed value. Where “and” joins values, the source holds several entries; their conditions need not be identical. Identical values can stand only once. Like-named read-outs stand apart in the source and are kept apart here.
Experiments:
[1] = Cytotoxicity against Vero cells (MTT assay); format: cell-based; details: African green monkey (Chlorocebus sp.)
Experimental: (§1) The HSV-1 strain L2 and Vero cell culture (kidney epithelial cells of the African green monkey Chlorocebus sp.) were obtained from the N.F. Gamaleya Federal Research Centre for Epidemiology and Microbiology (Moscow, Russia). HSV-1 was grown in Vero cells, using Dulbecco′s Modified Eagle′s Medium (DMEM, Biolot, St. Petersburg, Russia) supplemented with 10% fetal bovine serum (FBS, Biolot, St. Petersburg, Russia) and 100 U/mL of gentamycin (Dalkhimpharm, Khabarovsk, Russia), at 37 °C in a CO2 incubator. In the maintenance medium, the FBS concentration was decreased to 1%.
(§2) The tested compounds were dissolved in DMSO (Sigma, St. Louis, MO, USA) at a concentration 10 mg/mL and stored at −20 °C. For cytotoxicity and anti-HSV-1 activity determination, the stock solutions were diluted with DMEM so that the final concentration of DMSO was 0.5%.
The cytotoxicity evaluation of the studied compounds was performed using the MTT assay, as described previously. In brief, confluent Vero cells in 96-well microplates (1 × 10^4 cells/well) were incubated with tested compounds at various concentrations (1–500 μg/mL) at 37 °C for 48 h (5% CO2). Untreated cells were used as controls. Then, MTT solution (methylthiazolyltetrazolium bromide, Sigma, St. Louis, MO, USA) was added to cells at a concentration of 5 mg/mL and the cells were incubated at 37 °C for 2 h. After dissolution of formazan crystals, optical densities were read at 540 nm (Labsystems Multiskan RC, Vantaa, Finland). […] [42]. Experiments were performed in triplicate and repeated three times.

HSV-1 [2] = assay: Anti-HSV-1 activity, cytopathic effect (CPE) inhibition assay in Vero cells; format: cell-based, HSV-1 strain L2; details: for IC50: read-out: IC50 (CPE assay); for SI = CC50/IC50: Vero cells, HSV-1
Experimental: as §1, §2
The anti-HSV-1 activity of stilbenes was evaluated using cytopathic effect (CPE) inhibition assay in Vero cells. We infected the monolayer of cells grown in 96-well plates (1 × 10^4 cells/well) with 100 µL/well of virus suspension (100 TCD50/mL) and we simultaneously treated it with stilbenes 1–6 (100 µL/well) at various concentrations (from 1 to 400 μg/mL) for one hour at 37 ◦C. After virus absorption, we removed the mixture of virus and stilbenes, washed the cells, and added the maintenance medium with 1% FBS. […] We used MTT assay to evaluate the antiviral activity of stilbenes. The viral inhibition rate (IR, %) was calculated according to Equation (3):(3) IR, %=Atv−Acv/Acd−Acv×100, where: • Atv is the absorbance of cells infected with virus and treated with a polyphenolic compound; • Acv is the absorbance of the untreated virus-infected cells; • Acd is the absorbance of control (untreated and non-infected) cells.
The selectivity index (SI) was calculated as the ratio of CC50 to IC50. Experiments were repeated three times.

HSV-1 [3] = assay: Anti-HSV-1 activity, HSV-1 DNA level by real-time PCR (RT-PCR); format: cell-based, HSV-1 strain L2; details: 5 µg/mL, simultaneous treatment, 48 h; for 1, 4 and Maxar given on average
Experimental: The anti-HSV-1 activity of the polyphenolic compounds from M. amurensis was also studied using the real-time PCR (RT-PCR) technique (Figure 5 and Table S69, Supplementary Data). Vero cells were simultaneously infected with 100 TCD50/mL HSV-1 and treated with polyphenolic compounds 1–6 at concentrations of 50 and 5 μg/mL. After 48 h of cell incubation, viral DNA was extracted from the supernatants, and the relative level of HSV-1 DNA was determined using RT-PCR. The effect of stilbenes on the relative level of viral DNA was assessed by 2^−ΔCt method and reported as fold reduction relative to virus control, to which the value of 1.0 was assigned.
For the viral DNA extraction assay, Vero cells grown in 96-well plates were infected with HSV-1 and simultaneously treated with polyphenolic compounds and incubated at 37 °C in a CO2-incubator for 48 h. After incubation, the culture media and the cells scraped from the plate were transferred to centrifuge tubes. The cell debris was removed by centrifugation at 300× g for 10 min. Then, supernatant was collected and kept at −20 °C. The HSV-1 DNA was extracted from supernatant by using the AmpliSens® DNA-sorb-AM (K1-12-100-CE) nucleic acid extraction kit (Moscow, Russia) according to the manufacturer′s instructions. […]
The DNA HSV was detected in the obtained DNA samples using the AmpliSens® HSV I, II-FRT-100F PCR kit (Moscow, Russia) on a real-time PCR instrument Rotor-Gene Q (Qiagen, Hilden, Nordrhein-Westfalen, Germany) according to the manufacturer′s instructions. […] In the real-time PCR, the amplified product is detected with the use of fluorescent dyes. […] The threshold cycle number, Ct, was measured as the PCR cycle, where the amount of amplified target reached the threshold value. The reduction in the HSV-1 DNA levels in culture supernatants was assessed by the change in the threshold cycle (ΔCt) (Equation (4)):(4) ΔCt=Cttv−Ctcv where: • Cttv is the average Ct value for the infected samples after treatment with polyphenolic compounds; • Ctcv corresponds to the average Ct value for the virus control. […]

[4] = DPPH radical scavenging assay; details: 20 min; for IC50: read-out: DPPH Scavenging Effect IC50
Experimental: The DPPH (2,2-diphenyl-1-picrylhydrazyl) scavenging effect of polyphenolic compounds 1-6 from M. amurensis heartwood was evaluated as described previously in [40]. Stilbenes were added to DPPH solution in MeOH (10^−4 M) at a concentration range from 1 to 34 µM. The mixture was kept in the dark at room temperature for 20 min. Then, we measured the absorbance at 517 nm using a Shimadzu UV 1240 spectrophotometer (Shimadzu, Kyoto, Japan). The DPPH radical-scavenging effect (%) of the stilbenes was calculated using Equation (1): (1) DPPH scavenging effect, %=A0−Ax/A0×100, where: • A0 is the absorbance of DPPH solution without polyphenolic compounds (blank sample); • Ax is the absorbance of DPPH solution in the presence of different concentrations of polyphenolic compounds.
Quercetin and ascorbic acid were used as reference compounds. All experiments were performed in triplicate. The half maximal inhibitory concentration (IC50) for polyphenolic compounds was calculated by plotting the DPPH scavenging effect (%) against the concentrations of polyphenolic compounds. IC50 values are given as the mean ± SEM.

[5] = Ferric reducing antioxidant power (FRAP) assay; details: 4 min, pH 3.6
Experimental: The FRAP assay was carried out as described in [41]. We prepared FRAP reagent by mixing 2.5 mL of TPTZ (2,4,6-tris(2-pyridyl)-s-triazine) solution (10 mM) in 40 mM HCl and […] of FeCl3 solution (20 mM) in acetate buffer solution (300 mM, pH 3.6). Then, we added stilbenes 1–6 to 3 mL of FRAP reagent at concentrations from 1 to 34 µM. The mixture was kept in the dark at room temperature for 4 min. Then, we measured the absorbance at 595 nm using a Shimadzu UV 1240 spectrophotometer. Equation (2) was used to calculate the FRAP values of stilbenes 1–6:(2) FRAP=CFe/Cx, where: • CFe is the concentration of Fe^2+ (µM) formed in the reaction; • Cx is the concentration of polyphenolic compounds in the reacting mixture.
The concentration of Fe^2+ (µM) formed in the reaction was determined using the calibration curve obtained for different concentrations of FeSO4·7H2O.

[6] = system: PQ-treated Neuro-2a cells; assay: Intracellular ROS level in PQ-treated cells (H2DCF-DA); format: cell-based, murine; details: 10, 1, 0.1 μM
Experimental: After 24 h of adhesion, Neuro-2a cells (1 × 10^4 cells/well) were incubated with stilbenes (0.01–10 µM) for 1 h. After that, we added PQ (1 mM) to each well and incubated the cells for 3 h. To study ROS formation, we added 20 µL of 2,7-dichlorodihydrofluorescein diacetate solution ([…], H2DCF-DA, Molecular Probes, Eugene, OR, USA) to each well, so that the concentration was 10 µM, and kept the microplate in a CO2–incubator for additional 30 min at 37 °C.

[7] = system: PQ-treated Neuro-2a cells; assay: Mitochondrial membrane potential in PQ-treated cells (TMRM); format: cell-based, murine; details: 10 μM
Experimental: […] Then, we added PQ (500 μM) and kept the cell suspension in a CO2-incubator for 1 h. Cells incubated without PQ and stilbenes and with PQ only were used as positive and negative control, respectively. We added the tetramethylrhodamine methyl (TMRM) (Sigma-Aldrich, St. Louis, MO, USA) solution (500 nM) to each well and kept the cells for 30 min in a CO2-incubator at 37 °C. The intensity of fluorescence was measured with a PHERAstar […] reader (BMG Labtech, Ortenberg, Germany) at λex = 540 nm and λem = 590 nm. We processed the data by MARS Data Analysis v. 3.01R2 (BMG Labtech, Ortenberg, Germany) and presented the results as percentages of the positive control value.

[8] = system: PQ-treated Neuro-2a cells; assay: PQ-induced neurotoxicity model, cell viability (MTT assay); format: cell-based, murine; details: 10, 1, 0.1 μM, PQ 1 mM
Experimental: After 24 h of adhesion, we treated Neuro-2a cells (1 × 10^4 cells/well) with stilbenes (0.01–10 μM) for 1 h and added 1 mM of PQ (Sigma-Aldrich, St. Louis, MO, USA). Cells incubated without PQ or with PQ were used as positive and negative control, respectively. After 24 h, we measured the cell viability using MTT assay. The results are presented as percentages of the positive control value.

[9] = Human alphaherpesvirus 1, added to Vero cells simultaneously with the virus, 100 TCD50/mL

Structure (SMILES) | CC50 at 48 h [1] | IC50 (HSV-1 [2]; [9]) | SI = CC50/IC50 (HSV-1 [2]) | Reduction of relative level of HSV-1 DNA relative to virus control (HSV-1 [3]) | DPPH Scavenging Effect IC50 [4] | IC50 [4] | FRAP CFe2+(µM)/Cpolyphenolic compound (μkg/mL) [5] | Effect on ROS level in PQ-treated cells [6] | Increase of mitochondrial membrane potential compared to PQ-treated cells [7] | IC50 (HSV-1 [2]; Human alphaherpesvirus 1, Vero) | FRAP CFe2+(µM)/Cpolyphenolic compound (µM) [5] | Effect on viability of PQ-treated cells [8]
Nc1nc2c(ncn2COCCO)c(=O)[nH]1 [Acyclovir, reference compound] | > 1000 µg/mL and > 4 mM | 2.1 µg/mL and 9.3 µM | 430 | 4 log10 |  |  |  |  |  |  |  | 
COc1cc([C@@H]2c3c(O)cc(O)cc3[C@@H]3[C@H]2CO[C@@H]3c2ccc(O)c(O)c2)cc(OC)c1O [Compound 6, maackolin] | 256 µg/mL and 567 µM |  | 6.4 and 6.4 ± 0.8 |  | 0.90 ± 0.14 µg | 2 ± 0.3 µM | 51.11 ± 5.86 CFe2+(µM)/Cpolyphenolic compound (μkg/mL) | did not decrease the ROS level | 9% | 40.2 µg/mL and 88.9 µM |  | 
O=C1O[C@H]([C@@H](O)CO)C(O)=C1O [Ascorbic acid, reference compound] |  |  |  |  | 5.83 ± 0.49 µg | 33.1 ± 2.8 µM | 20.34 ± 0.16 CFe2+(µM)/Cpolyphenolic compound (μkg/mL) |  |  |  | 3.58 ± 0.29 CFe2+(µM)/Cpolyphenolic compound (µM) | 
O=c1c(O)c(-c2ccc(O)c(O)c2)oc2cc(O)cc(O)c12 [Quercetin, reference compound] |  |  |  |  | 2.81 ± 0.12 µg | 9.3 ± 0.4 µM | 18.3 ± 1.82 CFe2+(µM)/Cpolyphenolic compound (μkg/mL) |  |  |  | 5.53 ± 0.55 CFe2+(µM)/Cpolyphenolic compound (µM) | 
COc1ccc(-c2coc3c4c(ccc3c2=O)OC(c2cc(O)cc(O)c2)C(c2ccc(O)c(O)c2)O4)cc1 (stereo not drawn) [Compound 5, maackiasine] | 156 µg/mL and 297 µM |  | 6.6 and 6.6 ± 0.8 |  | 1.32 ± 0.16 µg | 2.5 ± 0.3 µM | 4.75 ± 0.72 CFe2+(µM)/Cpolyphenolic compound (μkg/mL) |  |  | 23.7 µg/mL and 45 µM | 2.50 ± 0.38 CFe2+(µM)/Cpolyphenolic compound (µM) | did not show any effect
Oc1cc(O)cc(/C=C/c2ccc(O)c(O)c2)c1 [Compound 2, piceatannol] | 250 ± 30 µg/mL (≈ 1020 µM) | 22 µg/mL and 90.2 µM | 11.4 ± 1.4 |  | 1.05 ± 0.12 µg | 4.3 ± 0.5 µM | 64.38 ± 5.86 CFe2+(µM)/Cpolyphenolic compound (μkg/mL) |  |  |  | 15.71 ± 1.43 CFe2+(µM)/Cpolyphenolic compound (µM) | did not show any effect
